Laboratory results as given in US9949995B2, “Compositions and methods of treating of bacterial infections with β-lactamase inhibitors” (priority 2015, dated 2018).
Each block holds one compound with its values, some of them ahead of it.

Assays:
KPC-2 = KPC-2 (Klebsiella pneumoniae, UniProt Q9F663); test: IC50 assay, nitrocefin hydrolysis, KPC-2 (SBL); type: biochemical; settings: nitrocefin 50 μM, 5 min pre-incubation at 25° C.; 10 mM phosphate-buffered saline, pH 7.4
Procedure: (§1) IC50 assays were performed to determine compound ability to inhibit enzyme.

OXA-23 = OXA-23 (Acinetobacter baumannii, UniProt Q9L4P2); test: IC50 assay, nitrocefin hydrolysis, OXA-23 (SBL); type: biochemical; settings: nitrocefin 50 μM, 5 min pre-incubation at 25° C.; 50 mM Na Phosphate buffer, pH 7.2, 20 mM Na bicarbonate
Chain of OXA-23 (Q9L4P2 18-273): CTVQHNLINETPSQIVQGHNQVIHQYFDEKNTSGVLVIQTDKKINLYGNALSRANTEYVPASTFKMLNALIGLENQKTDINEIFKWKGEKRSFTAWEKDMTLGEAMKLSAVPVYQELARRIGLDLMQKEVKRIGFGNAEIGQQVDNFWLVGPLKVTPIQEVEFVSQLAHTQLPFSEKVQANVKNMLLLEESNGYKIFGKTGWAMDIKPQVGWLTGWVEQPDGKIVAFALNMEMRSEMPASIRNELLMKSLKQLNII
Procedure: as §1

PDC-3 = PDC-3 (Pseudomonas aeruginosa, UniProt P24735, T105A); test: IC50 assay, nitrocefin hydrolysis, PDC-3 (SBL); type: biochemical
Chain of PDC-3 (P24735 27-397 T105A): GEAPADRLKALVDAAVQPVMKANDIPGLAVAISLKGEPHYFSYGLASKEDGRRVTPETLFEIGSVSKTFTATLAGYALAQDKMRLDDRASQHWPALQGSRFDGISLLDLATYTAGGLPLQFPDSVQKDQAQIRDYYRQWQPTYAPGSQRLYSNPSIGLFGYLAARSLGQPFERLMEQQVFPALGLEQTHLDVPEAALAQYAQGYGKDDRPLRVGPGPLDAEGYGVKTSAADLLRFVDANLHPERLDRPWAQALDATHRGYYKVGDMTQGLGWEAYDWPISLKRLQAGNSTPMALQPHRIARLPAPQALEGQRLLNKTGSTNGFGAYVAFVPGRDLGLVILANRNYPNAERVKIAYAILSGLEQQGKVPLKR
Procedure: as §1

ADC-7 = ADC-7 (Acinetobacter baumannii, UniProt Q6DRA1); test: IC50 assay, nitrocefin hydrolysis, ADC-7 (SBL); type: biochemical; settings: nitrocefin 50 μM, 5 min pre-incubation at 25° C.; 10 mM phosphate-buffered saline, pH 7.4
Procedure: as §1

IMP-1 = IMP-1 (Serratia marcescens, UniProt P52699); test: IC50 assay, nitrocefin hydrolysis, IMP-1 (MBL); type: biochemical; settings: nitrocefin 50 μM, 5 min pre-incubation at 25° C.; 10 mM HEPES pH 7.5, 200 mM NaCl, 50 uM Zn2SO4, 50 ug/ml BSA
Chain of IMP-1 (P52699 19-246, looked up): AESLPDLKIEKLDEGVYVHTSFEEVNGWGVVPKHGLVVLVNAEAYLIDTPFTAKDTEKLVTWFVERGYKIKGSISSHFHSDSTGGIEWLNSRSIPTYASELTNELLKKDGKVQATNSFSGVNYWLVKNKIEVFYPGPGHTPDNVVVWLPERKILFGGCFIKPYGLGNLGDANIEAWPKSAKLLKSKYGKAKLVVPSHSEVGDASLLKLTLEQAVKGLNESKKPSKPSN
Procedure: as §1

VIM-24 = VIM-24 (Escherichia coli, UniProt Q5U7L7, R205L); test: IC50 assay, nitrocefin hydrolysis, VIM-24 (MBL); type: biochemical
Procedure: as §1

VIM-2 = VIM-2 (Escherichia coli, UniProt Q5U7L7); test: IC50 assay, nitrocefin hydrolysis, VIM-2 (MBL); type: biochemical; settings: nitrocefin 50 μM, 5 min pre-incubation at 25° C.; 10 mM HEPES pH 7.5, 200 mM NaCl, 50 uM Zn2SO4, 50 ug/ml BSA
Procedure: as §1

NDM-1 = NDM-1 (Klebsiella pneumoniae, UniProt C7C422); test: IC50 assay, nitrocefin hydrolysis, NDM-1 (MBL); type: biochemical; settings: nitrocefin 50 μM, 5 min pre-incubation at 25° C.; 10 mM HEPES pH 7.5, 200 mM NaCl, 50 uM Zn2SO4, 50 ug/ml BSA
Chain of NDM-1 (C7C422 29-270, looked up): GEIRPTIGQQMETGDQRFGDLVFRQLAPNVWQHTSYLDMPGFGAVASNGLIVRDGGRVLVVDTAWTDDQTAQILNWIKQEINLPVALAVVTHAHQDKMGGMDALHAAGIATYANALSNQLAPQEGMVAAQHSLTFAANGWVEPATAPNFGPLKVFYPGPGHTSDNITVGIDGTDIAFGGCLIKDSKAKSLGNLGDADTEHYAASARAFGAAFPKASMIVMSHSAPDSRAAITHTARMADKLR
Procedure: as §1

Chain of KPC-2 (Q9F663 25-293, looked up): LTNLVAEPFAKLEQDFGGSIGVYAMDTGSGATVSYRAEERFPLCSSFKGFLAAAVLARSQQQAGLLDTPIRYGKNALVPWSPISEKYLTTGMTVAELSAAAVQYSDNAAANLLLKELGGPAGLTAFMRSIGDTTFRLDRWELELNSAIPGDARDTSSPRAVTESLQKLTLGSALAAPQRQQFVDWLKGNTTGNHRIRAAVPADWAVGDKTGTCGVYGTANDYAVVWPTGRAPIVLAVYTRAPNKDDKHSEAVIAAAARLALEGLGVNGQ

- melting point: 88 to 90 °C (dec.)
SMILES: O=C(O)c1cccc(C[C@@H](B(O)O)n2cc(-c3ccccc3)nn2)c1

- melting point: 123 to 125 °C (dec.)
SMILES: CCOC(=O)c1cn(CB(O)O)nn1

SMILES: Cc1ccc(S(=O)(=O)NCc2cn(CB(O)O)nn2)cc1 [Cmp 1a]
- IC50 (KPC-2): 1.3 ± 0.1 µM
- IC50 (OXA-23): > 100 µM
- IC50 (PDC-3): 9 ± 1 µM
- IC50 (ADC-7): 24 ± 3 µM
- IC50 (IMP-1): > 100 µM
- IC50 (VIM-24): > 100 µM
- IC50 (VIM-2): > 100 µM
- IC50 (NDM-1): > 100 µM

SMILES: O=C(NCc1cn(CB(O)O)nn1)c1ccccc1 [Cmp 1c]
- IC50 (KPC-2): 10.8 ± 1.5 µM
- IC50 (OXA-23): > 100 µM
- IC50 (PDC-3): 26 ± 3 µM
- IC50 (ADC-7): 23 ± 3 µM
- IC50 (IMP-1): > 100 µM
- IC50 (VIM-24): > 100 µM
- IC50 (VIM-2): 55 ± 5 µM
- IC50 (NDM-1): > 100 µM

- melting point: 185 to 187 °C (dec.)
SMILES: O=C(O)c1cccc(C[C@@H](B(O)O)n2cc(-c3ccsc3)nn2)c1

- melting point: 120 to 122 °C (dec.)
SMILES: O=C(O)c1cn([C@@H](Cc2ccccc2)B(O)O)nn1

SMILES: O=C(Cc1ccccc1)NCc1cn(CB(O)O)nn1 [Cmp 1d]
- IC50 (KPC-2): 12 ± 1 µM
- IC50 (OXA-23): > 100 µM
- IC50 (PDC-3): 23 ± 3 µM
- IC50 (ADC-7): 39 ± 4 µM
- IC50 (IMP-1): > 100 µM
- IC50 (VIM-24): > 100 µM
- IC50 (VIM-2): 92 ± 9 µM
- IC50 (NDM-1): > 100 µM

SMILES: O=C(NCc1cn(CB(O)O)nn1)Nc1ccccc1 [Cmp 1e]
- IC50 (KPC-2): 5.2 ± 0.2 µM
- IC50 (OXA-23): > 100 µM
- IC50 (PDC-3): 10 ± 1 µM
- IC50 (ADC-7): 14 ± 2 µM
- IC50 (IMP-1): > 100 µM
- IC50 (VIM-24): > 100 µM
- IC50 (VIM-2): 39 ± 4 µM
- IC50 (NDM-1): > 100 µM

- melting point: 128 to 131 °C (dec.)
SMILES: OB(O)Cn1cc(COc2ccccc2)nn1

- melting point: 141 to 143 °C (dec.)
SMILES: OB(O)[C@H](Cc1ccccc1)n1cc(-c2ccsc2)nn1

- melting point: 170 to 172 °C (dec.)
SMILES: OB(O)Cn1cc(-c2ccsc2)nn1

- melting point: 108 to 110 °C (dec.)
SMILES: CCOC(=O)c1cn([C@@H](Cc2cccc(C(=O)O)c2)B(O)O)nn1

- melting point: 113 to 115 °C (dec.)
SMILES: OB(O)[C@H](Cc1ccccc1)n1cc(COc2ccccc2)nn1

- melting point: 151 to 153 °C (dec.)
SMILES: OB(O)[C@H](Cc1ccccc1)n1cc(-c2ccccc2)nn1

- melting point: 122 to 124 °C (dec.)
SMILES: OB(O)Cn1cc(-c2ccccc2)nn1
